Experimental data from publication PMC6628320, “Poly-Saturated Dolichols from Filamentous Fungi Modulate Activity of Dolichol-Dependent Glycosyltransferase and Physical Properties of Membranes” (International Journal of Molecular Sciences, 2019).

What was measured:
Assay in all cases: radiometric GDP[…]mannose transfer, membrane fraction, organic-phase counting
Assay type in all cases: biochemical
Details in all cases: GDP[14C]mannose co-substrate, 10 mM MgCl2, 0.1% Nonidet P-40, pH 7.4, 30 °C, 5 min; 50 µL assay (amount, not concentration)
[1] = target: T1, ScDPMS (DPMS from S. cerevisiae) (Saccharomyces cerevisiae, UniProt P14020)
T1 construct: gene DPM1; native enzyme in yeast membrane fraction, not purified; Type I, exclusively Dpm1 subunit
T1 sequence (P14020 2-267): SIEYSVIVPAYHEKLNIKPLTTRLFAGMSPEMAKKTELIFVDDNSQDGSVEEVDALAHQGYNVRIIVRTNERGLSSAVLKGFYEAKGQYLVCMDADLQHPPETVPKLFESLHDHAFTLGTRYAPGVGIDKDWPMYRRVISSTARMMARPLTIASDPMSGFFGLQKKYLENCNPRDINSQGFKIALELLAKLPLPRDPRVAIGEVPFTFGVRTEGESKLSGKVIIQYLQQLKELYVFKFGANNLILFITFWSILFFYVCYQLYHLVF

[2] = target: T2, TrDPMS (DPMS from T. reesei) (Trichoderma reesei, UniProt G0R8U7)
T2 construct: gene dpm1; native Dpm1/Dpm2/Dpm3 complex in the membrane fraction of T. reesei, not purified; with Dolichol phosphate-mannose biosynthesis regulatory protein; Dolichol-phosphate mannosyltransferase subunit 3

[3] = target: T3, TrDPMS-1,3 (T. reesei Dpm1,3 expressed in S. cerevisiae) (Trichoderma reesei, UniProt G0R8U7)
T3 construct: dpm1Tr (p415 GPD LEU) and dpm3Tr (pESC-URA) in S. cerevisiae dpm1dr∆ mutant; yeast membrane fraction; Dpm2 omitted; with Dolichol-phosphate mannosyltransferase subunit 3
T3 sequence (G0R8U7 entry or part of it): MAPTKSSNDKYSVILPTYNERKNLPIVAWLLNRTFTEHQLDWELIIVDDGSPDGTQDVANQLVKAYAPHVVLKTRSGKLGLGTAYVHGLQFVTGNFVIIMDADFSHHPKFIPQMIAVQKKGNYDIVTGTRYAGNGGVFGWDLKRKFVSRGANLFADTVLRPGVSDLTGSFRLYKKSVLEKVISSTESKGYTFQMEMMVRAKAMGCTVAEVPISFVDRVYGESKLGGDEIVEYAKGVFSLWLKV
T3 sequence (C6KF57 entry or part of it, further chain): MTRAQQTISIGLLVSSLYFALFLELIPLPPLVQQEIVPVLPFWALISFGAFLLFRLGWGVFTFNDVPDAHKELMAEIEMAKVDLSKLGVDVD

T2 sequence (G0R8U7 1-243): as the sequence (G0R8U7 entry or part of it) above
T2 sequence (C6KF57 1-92 partner): as the sequence (C6KF57 entry or part of it, further chain) above
T2 sequence (C6KF56 1-80 partner): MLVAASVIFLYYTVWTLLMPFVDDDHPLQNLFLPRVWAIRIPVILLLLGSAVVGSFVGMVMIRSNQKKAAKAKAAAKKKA

CC(C)=CCC/C(C)=C/CC/C(C)=C/CC/C(C)=C\CC/C(C)=C\CC/C(C)=C\CC/C(C)=C\CC/C(C)=C\CC/C(C)=C\CC/C(C)=C\CCC(C)CCOP(=O)(O)O (stereo not drawn) [Dol-P11]
S. cerevisiae / Km [1]: 730 ng | T. reesei / Km [2]: 3500 ng | S. cerevisiae / Km [3]: 730 ng
